{
  "source": "patent US20210277005A1",
  "about": "“PROANGIOGENIC COMPOSITIONS AND METHODS OF USE” (University of North Dakota, priority 2020, published 2021)",
  "key": {"[1]": {"system": "HUVEC cells", "test": "Effect of inhibitors/antagonists on the AdSucc-induced Ca2+ response", "assay_type": "cell-based, human", "details": "for effect on Ca2+ response upon AdSucc treatment: PLC inhibitor / IP3 antagonist", "method": "(§1) In another example, AdSucc signaling properties were studied. To validate if AdSucc may have a signaling role, the effect of AdSucc on second messenger signaling molecules was studied. […] Our initial data was collected on a plate reader that averages multicellular responses upon AdSucc stimulation. […] To get insights into a mechanism for Ca^2+ release, cells were treated with phospholipase C (PLC) inhibitors U73122 and inositol phosphate triphosphate (IP3) antagonist 2-APB. […] In FIG. 3B, forskolin was used as a positive control (n=5). In FIG. 3C AdSucc is shown to increase cytosolic Ca^2+ in the primary rat brain microvascular endothelia 9b) and HUVEC (c) cells as determined using a plate reader, ATP was used as a positive control."}, "[2]": {"system": "mice with transient middle cerebral artery occlusion (MCAO)", "test": "Stroke model: 45 min transient middle cerebral artery occlusion (MCAO), intranasal treatment", "assay_type": "in vivo", "details": "AdSucc intranasally 2 h after reperfusion and then every 24 h, 10 μL/animal, 20 mM in PBS; tested 1-7 days post MCAO", "method": "In an example, Stroke was induced in 3 month old mice with 45 min of transient middle cerebral artery occlusion (MCAO) using an intraluminal filament and performed in a double-blind manner. To correct for edema and necrotic tissue loss, corrected infarct volume was calculated as [(volume of the contralateral hemisphere) minus (volume of the viable tissue in ischemic hemisphere)] after triphenyl tetrazolium chloride (TTC) staining on day 7 post-reperfusion. Following MCAO, a modified neurological deficiency score was used to grade neurological function. A series of motor (muscle status, movement, and balance), sensory (visual, tactile, and proprioceptive) and reflex tests were graded (0—being normal and 18—maximal deficit score) by investigator who was blinded to the experimental groups. Mice were tested 1, 3, 5, and 7 days post MCAO surgery. Deaths were plotted and analyzed as survival probability. Mice were treated with AdSucc intranasally 2 h after reperfusion and then every 24 h (10 μL/animal over 10 min, 20 mM in PBS, pH=7.2). […] FIG. 1A is a graph showing neurological deficiency in the test subjects. In FIG. 1A, higher numbers indicate higher deficiency between saline and AdSucc treated animals at the same test day. […] FIG. 1C is a graph showing representative blood flow rate during MCAO surgery as recorded with a laser Doppler sensor."}, "[3]": {"system": "nude mice", "test": "In vivo matrigel plaque angiogenesis assay (hemoglobin readout)", "details": "AdSucc 0.5 mM in matrigel, s.c. in nude mice, 10 days, n=4", "description": "(§2) The pro-angiogenic AdSucc effect in vivo using a matrigel plaque loaded with AdSucc (using hemoglobin readout) or DIVA assay kit also loaded with AdSucc (using endothelial cell quantification with FITC labeled lectin) was also studied (FIG. 4B). In both assays, matrigel was implanted into nude mice (s.c.) for 10 days. […] In addition, in the matrigel assay, the concentration of AdSucc degradation products, SuccAd, was 1000-fold lower than AdSucc, and adenosine was undetectable in the matrigel (FIG. 4C)."}, "[4]": {"system": "HUVEC cells", "test": "cAMP levels in endothelial cells", "assay_type": "cell-based, human", "details": "forskolin positive control", "method": "as §1"}, "[5]": {"system": "nude mice", "test": "In vivo DIVA assay kit (endothelial cell quantification with FITC labeled lectin)", "details": "AdSucc 0.5 mM loaded, s.c. in nude mice, 10 days, n=4", "description": "as §2"}, "[6]": {"system": "HUVEC cells", "test": "Intracellular Ca2+ levels in HUVEC cells (plate reader, single cell imaging)", "assay_type": "cell-based, human", "method": "as §1"}, "[7]": {"system": "primary rat microvascular endothelial cells", "test": "Intracellular Ca2+ levels in primary rat brain microvascular endothelial cells (plate reader)", "assay_type": "cell-based", "details": "ATP positive control", "method": "as §1"}, "[8]": {"test": "Brain AdSucc concentration after intranasal AdSucc treatment", "assay_type": "in vivo, mice", "details": "10 μL/animal over 10 min, 20 mM in PBS, pH=7.2"}, "[9]": {"system": "HUVEC cells", "test": "In vitro sprouting assay on collagen matrix", "assay_type": "cell-based, human", "details": "24 h, normoxia; for invasion and sprouting of HUVEC cells: 0.5 mM in collagen matrix, n=4", "method": "In another example AdSucc's role in angiogenesis was studied. Two different models were used to collect preliminary data in support of AdSucc angiogenic properties. First, an in vitro sprouting assay—a critical step in angiogenesis—was used. HUVEC cells were plated on collagen matrix containing AdSucc, SuccAd, VEGF, or vesicle control for 24 h. For quantification of invaded and sprouted structures, z-stacked images were taking using transmitted light illumination in identical fields following glutaraldehyde fixation and toluidine blue staining. […] The concentrations used (0.5 mM) were in the range found in the brain under low energy conditions."}, "[10]": {"test": "Matrigel analysis for products of AdSucc degradation upon incubation in vivo", "set-up": "species or system mice", "details": "AdSucc loaded matrigel after in vivo incubation, n=3", "description": "as §2"}},
  "data": [
    {"smiles": "Cc1cc(N2CCCCC2)nc2ccccc12", "note": "[ML 204]", "values": [
      {"measurement": "effect on AdSucc-induced Ca2+ signaling", "setting": "[1]; TRPC 4/5 antagonist at 25 μM", "value": "did not affect"}
    ]},
    {"smiles": "O=C(O)C[C@H](Nc1ncnc2c1ncn2[C@@H]1O[C@H](COP(=O)(O)O)[C@@H](O)[C@H]1O)C(=O)O", "note": "[AdSucc, (2S)-2-({9-[(2R,3R,4S,5R)-3,4-dihydroxy-5-[(phosphonooxy)methyl]oxolan-2-yl]-9H-purin-6-yl}amino)butanedioic acid]", "values": [
      {"measurement": "outcome after stroke injury (neurological deficiency score, survival, corrected infarct volume)", "setting": "[2]", "value": "significant improvement"},
      {"measurement": "angiogenesis in loaded matrigel (hemoglobin)", "setting": "[3]", "value": "significantly increased"},
      {"measurement": "effect on cAMP levels", "setting": "[4]", "value": "no effect"},
      {"measurement": "angiogenesis in DIVA assay (FITC lectin labeled endothelial cells)", "setting": "[5]", "value": "significantly increased"},
      {"measurement": "Ca2+ increase by single cell Ca2+ imaging", "setting": "[6]; 2 micromolar Fura, 0 and 100 sec after AdSucc 0.3 mM in PBS", "value": "independently confirmed"},
      {"measurement": "effect on intracellular Ca2+ levels", "setting": "[6]; plate reader, AdSucc at the concentration found in the ischemic brain, comparable to ATP treatment", "value": "very profound effect"},
      {"measurement": "effect on intracellular Ca2+ levels", "setting": "[7]", "value": "very profound effect"},
      {"measurement": "brain AdSucc concentrations", "setting": "[8]", "value": "significantly increased"},
      {"measurement": "invasion and sprouting of HUVEC cells", "setting": "[9]", "value": "significantly potentiated"},
      {"measurement": "invasion and sprouting effect compared to VEGF", "setting": "[9]; 0.5 mM", "value": "higher effect compared to VEGF"}
    ]},
    {"smiles": "NCCOB(c1ccccc1)c1ccccc1", "note": "[2-APB]", "values": [
      {"measurement": "effect on Ca2+ response upon AdSucc treatment", "setting": "[1]; HUVEC cells, n=5", "value": "significantly attenuated"}
    ]},
    {"smiles": "Nc1ncnc2c1ncn2[C@@H]1O[C@H](CO)[C@@H](O)[C@H]1O", "note": "[adenosine]", "values": [
      {"measurement": "degradation product level in the matrigel", "setting": "[10]", "value": "undetectable"}
    ]},
    {"smiles": "Cc1c(C(=O)Nc2cccc(C(F)(F)F)c2)cc(-c2ccccc2)n1CCCN1CCOCC1", "note": "[HC 067047]", "values": [
      {"measurement": "effect on AdSucc-induced Ca2+ signaling", "setting": "[1]; TROV4 antagonist at 0.5 μM", "value": "did not affect"}
    ]},
    {"smiles": "COc1ccc2c(c1)CC[C@@H]1[C@@H]2CC[C@]2(C)[C@@H](NCCCCCCN3C(=O)C=CC3=O)CC[C@@H]12", "note": "[U73122]", "values": [
      {"measurement": "effect on Ca2+ response upon AdSucc treatment", "setting": "[1]; HUVEC cells, n=5", "value": "significantly attenuated"}
    ]},
    {"smiles": "Cc1nc(N=Nc2ccc(S(=O)(=O)O)cc2S(=O)(=O)O)c(COP(=O)(O)O)c(C=O)c1O", "note": "[PPADS]", "values": [
      {"measurement": "effect on AdSucc-induced Ca2+ response", "setting": "[1]; non-selective P2 purinergic antagonist, HUVEC cells, n=5", "value": "significantly attenuated"}
    ]},
    {"smiles": "O=C(O)C[C@H](Nc1ncnc2c1ncn2[C@@H]1O[C@H](CO)[C@@H](O)[C@H]1O)C(=O)O", "note": "[SuccAd, N-(9-β-D-ribofuranosyl-9H-purin-6-yl)-L-aspartic acid]", "values": [
      {"measurement": "concentration of the AdSucc degradation product in the matrigel, relative to AdSucc", "setting": "[10]; lower than AdSucc", "value": 1000, "unit": "fold"},
      {"measurement": "invasion and sprouting of HUVEC cells", "setting": "[9]", "value": "did not have an effect"}
    ]}
  ]
}
